Series [1] deals with T1, Lp-PLA2 (rabbit serum as the source of enzyme) (Oryctolagus cuniculus, UniProt G1SE06).
T1 construct: Rabbit Serum as the Source of Enzyme; from tissue; host or cells: rabbit serum
T1 sequence (G1SE06 22-423): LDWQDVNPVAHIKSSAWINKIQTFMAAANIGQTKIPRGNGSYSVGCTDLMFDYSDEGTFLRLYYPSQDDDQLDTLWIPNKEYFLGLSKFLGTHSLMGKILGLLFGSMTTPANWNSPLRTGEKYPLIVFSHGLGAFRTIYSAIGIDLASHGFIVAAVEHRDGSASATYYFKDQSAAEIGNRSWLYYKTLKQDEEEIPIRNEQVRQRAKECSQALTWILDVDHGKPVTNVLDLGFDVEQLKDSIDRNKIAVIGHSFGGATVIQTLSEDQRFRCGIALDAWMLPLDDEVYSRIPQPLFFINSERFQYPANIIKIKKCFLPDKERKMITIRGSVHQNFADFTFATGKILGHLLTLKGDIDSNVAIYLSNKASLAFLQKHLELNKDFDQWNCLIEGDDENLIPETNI
Nature of the series: In vitro inhibitory activity on Lp-PLA2, rabbit serum as the source of enzyme (2-thio-PAF/DTNB). The following applies: read-out: Inhibitory ratio, % on Lp-PLA2 (rabbit serum as the source of enzyme). Type of series: biochemical. The procedure:
(§1) 0.1M Tris-HCl, 1 mM EGTA, PH 7.2
(§2) Anhydrous ethanol was used as solvent to make a 25 mg/ml mother liquor. The solution was aliquoted, stored at −80° C. and diluted 900 times before use (about 50 μM of concentration)
(§3) 3) DTNB (5,5′-dithio-bis-(2-nitrobenzoic acid), Sigma, Lot D8130)
(§4) The solution was prepared just before use.
(§5) 4) Compound was dissolved in DMSO to a suitable concentration.
(§6) Lp-PLA2 activity was determined by using 2-thio-PAF as substrate. The thiol group produced upon the hydrolysis of 2-thio-PAF can react with DTNB to generate a yellow substance. The optical density at 414 nm can be detected to reflect Lp-PLA2 activity.
1.1 Determination of the Inhibitory Activity of the Compounds on Lp-PLA2 (Rabbit Serum as the Source of Enzyme) (In Vitro)
1) The corresponding reagents were added according to Table 1 and mixed uniformly by shaking.
(§7) 2) 10 μL of DTNB was added to each well.
(§8) 3) 150 μL of 2-thio-PAF was added to each well and shaken for 15 s on a microplate reader to mix the liquid in the well uniformly.

Series [2] concerns the target T2, Lp-PLA2 (human recombinant enzyme as the source of enzyme) (Homo sapiens, UniProt Q13093).
T2 sequence (Q13093 22-441): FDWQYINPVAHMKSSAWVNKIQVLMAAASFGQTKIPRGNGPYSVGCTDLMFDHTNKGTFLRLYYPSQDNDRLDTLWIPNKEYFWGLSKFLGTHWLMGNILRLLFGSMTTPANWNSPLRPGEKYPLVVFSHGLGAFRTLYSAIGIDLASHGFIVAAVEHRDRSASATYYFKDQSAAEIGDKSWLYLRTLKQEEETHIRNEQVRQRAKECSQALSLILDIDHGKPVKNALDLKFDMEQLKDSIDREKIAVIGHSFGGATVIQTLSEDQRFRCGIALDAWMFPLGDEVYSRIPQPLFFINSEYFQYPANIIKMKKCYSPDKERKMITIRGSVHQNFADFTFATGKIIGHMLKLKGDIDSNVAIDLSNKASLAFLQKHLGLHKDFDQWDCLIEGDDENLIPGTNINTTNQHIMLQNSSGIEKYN
The experiment in a line: In vitro inhibitory activity on Lp-PLA2, human recombinant enzyme (2-thio-PAF/DTNB). The following applies: read-out: inhibitory ratio, % on Lp-PLA2 (human recombinant enzyme as the source of enzyme). In kind it is biochemical. The procedure: as §1, §2, §3, §4, §5, §6
1.2 Determination of the Inhibitory Activity of the Compounds on Lp-PLA2 (Human Recombinant Enzyme as the Source of Enzyme) (In Vitro)
1) The corresponding reagents were added according to Table 3 and mixed uniformly by shaking.
as §7, §8

Series [3] deals with Lp-PLA2 (rat serum as the source of enzyme). The experiment in a line: In vitro inhibitory activity on Lp-PLA2, rat serum as the source of enzyme (2-thio-PAF/DTNB). Type of series: biochemical. The protocol:
as §1, §2, §3, §4, §5, §6
1.3 Determination of the Inhibitory Activity of the Compounds on Lp-PLA2 (Rat Serum as the Source of Enzyme (In Vitro)
1) The corresponding reagents were added according to Table 5 and mixed uniformly by shaking.
as §7, §8

The nature of series [4]: In vitro assay of S9 metabolic stability, human S9. Type of series: in vitro ADME. Conditions: for half-life at 0.1 μM: human, S9 fraction, pH 7.4. The procedure:
(§9) 3.1.1 The Preparation of Tris/HCl(0.1 M, pH 7.4) Buffer
(§10) 12.12 g of TRIS (tris-hydroxymethyl aminomethane) was weighed, dissolved in 800 mL of water, and adjusted to pH 7.4 with HCl (2 M), and then the volume was adjusted to 1000 mL with water.
(§11) 3.1.2 The preparation of MgCl2
(§12) MgCl2 (100 mM) solution was prepared with 0.1 M Tris/HCl buffer, aliquoted and stored at −20° C. The incubation concentration of MgCl2 was 5.0 mM.
(§13) 3.1.3 The Preparation of NADPH
(§14) NADPH (10 mM) solution was prepared with 0.1 M Tris/HCl buffer, aliquoted and stored at −20° C. The incubation concentration of NADPH was 1.0 mM.
(§15) 3.1.4 The Preparation of S9
(§16) Human S9 (purchased from Reid Liver Disease Research (Shanghai) Co., Ltd.) was diluted 10 times with 0.1 M Tris/HCl and rat S9 (purchased from Reid Liver Disease Research (Shanghai) Co., Ltd.) was diluted 5 times with 0.1 M Tris/HCl, so that the incubation concentrations of human and rat S9 were equivalent to the incubation concentrations of the liver microsomes in the corresponding species (both incubation concentrations of liver microsomes in human and rats are 0.33 mg/mL).
(§17) 3.1.5 The Preparation of the Compounds to be Tested
The compound was dissolved in DMSO to obtain a stock solution at a concentration of 10 mM. The stock solution was diluted to 1 mM with DMSO and then diluted with 0.1% BSA-water to obtain a working solution at a concentration of 2 μM. In the incubation system, the working solution of 2 μM was diluted 20 times to a final concentration of 0.1 μM. The concentration of DMSO in the incubation system was ≤0.01%.
3.1.6 The Preparation of the Positive Control Compound
2 mM VIVID stock solution (purchased from Shanghai Beili Biotechnology Co., Ltd.) was diluted 50 times with the 2 μM working solution for the compounds to be tested. In the incubation system, the mixed working solution of VIVID and the compounds to be tested were diluted 20 times
S9 was incubated in a 96-well plate and each incubation system was 450 μL. […]

The nature of series [5]: In vitro assay of S9 metabolic stability, rat S9. Type of series: in vitro ADME. The following applies: S9 fraction, pH 7.4; rat S9, NADPH addition, 0.1 μM compound, 37° C. The procedure:
as §9, §10, §11, §12, §13, §14, §15, §16, §17
The compound was dissolved in DMSO to obtain a stock solution at a concentration of 10 mM. The stock solution was diluted to 1 mM with DMSO and then diluted with 0.1% BSA-water to obtain a working solution at a concentration of 2 μM. […]

Series [6] relates to Lp-PLA2 in serum of SD rats. The experiment in a line: In vivo inhibition assay of Lp-PLA2 activity in SD rats, single administration. On the set-up: species or system rat. Conditions: 50 mg/kg oral, serum 1-24 h. The protocol: Each group had 5 SD rats and 50 mg/kg test agents was administrated orally to the rats. […] Blood was collected from the orbits of the rats at 0 h before administration and at 1 h, 3 h, 5 h, 7 h and 24 h after administration and placed at room temperature for 30 minutes before centrifugation. Serum was collected and the Lp-PLA2 activity in serum was measured.

The mark [7] stands for this setting: 10 nM compound, — = no inhibitory activity.

Three compounds from patent publication US10280146B2, “Pyrimidone compounds used as Lp-PLA2 inhibitors and pharmaceutical compositions thereof” (Shanghai Institute of Materia Medica, Chinese Academy of …, priority 2014, dated 2019) can be followed below.

Where only a bound is given, the exact number is not on record here.

One may read the half-life as the time in which the quantity being followed falls by half. Take `Cn1cc(-c2cc(OCc3cc(F)c(Oc4ccc(Cl)c(C(F)(F)F)c4)c(F)c3)nc(=O)n2C)cn1` [Example 21, 4-((4-(4-chloro-3-(trifluoromethyl)phenoxy)-3,5-difluorobenzyl)oxy)-1-methyl-6-(1-methyl-1H-pyrazolyl-4)pyrimidin-2(1H)-one]: the results for the inhibition at 0.01 µM in series [1] (setting [7]) and in series [2] (10 nM compound) were 33.2% and 82.8%, respectively. Besides, the inhibition at 0.1 µM amounted to 65.4% in series [1] (100 nM compound) and 90.1% in series [2] (100 nM compound). Moreover, the “inhibitory ratio, % on Lp-PLA2 (rat serum as the source of enzyme)” value was determined as 27.65% in series [3] (setting [7]) and 82.48% in series [3] (100 nM compound). For the same compound, the half-life at 0.1 μM in series [4] is greater than 1 h; in series [5] it was 195 h. Besides, the “metabolism stability (in words)” value in series [4] (statement covers human and rat S9) is “superior metabolism stability”.

For `COc1cc(OCc2ccc(Oc3ccc(Cl)c(C(F)(F)F)c3)c(F)c2)nc(=O)n1C` [Example 66, 4-((4-(4-chloro-3-(trifluoromethyl)phenoxy)-3-fluorobenzyl)oxy)-6-methoxy-1-methylpyrimidin-2(1H)-one], in series [6], the “activity of Lp-PLA2 in serum of the SD rats after a single administration” value is “comparable to darapladib”.

`COc1cc(OCc2cc(F)c(Oc3ccc(Cl)c(C(F)(F)F)c3)c(F)c2)nc(=O)n1C` [Example 65, 4-((4-(4-chloro-3-(trifluoromethyl)phenoxy)-3,5-difluorobenzyl)oxy)-6-methoxy-1-methylpyrimidin-2(1H)-one]: the half-life at 0.1 μM in series [4] was 7.08 h; in series [5], 2.68 h.
